Assays:
[1] = system: Scirpus juncoides; assay: Herbicidal effect test in submerged condition by treatment during weed-growth stage (1); type: in vivo; conditions: 0.64 g/a, treated at 1st to 2nd leaf stage, 3 weeks after treatment
Summary of the method: (§1)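 Paddy-soil pots flooded to 4 cm water depth were sown and grown in a greenhouse at 25 to 30° C until weeds reached 1st to 2nd leaf stage. A wettable powder diluted in water to a predetermined formulation amount was applied to the water surface. Herbicidal effect was scored 3 weeks after treatment against set criteria.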

[2] = system: Echinochloa crus-galli; assay: as above; type: in vivo; conditions: 0.64 g/a, treated at 1st to 2nd leaf stage, 3 weeks after treatment
Summary of the method: as §1

[3] = system: Monochoria vaginalis; assay: as above; type: in vivo; conditions: 0.64 g/a, treated at 1st to 2nd leaf stage, 3 weeks after treatment
Summary of the method: as §1

[4] = system: direct sown rice; assay: Herbicidal effect test by foliage treatment; type: in vivo, Oryza sativa; conditions: 1.6 g/a; foliage treatment after growth of 14 days; 3 weeks after treatment
Summary of the method: (§2)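 Greenhouse-grown plants (25–30 °C) sprayed on foliage 14 days after sowing with water-diluted wettable powder at set formulation rates. Herbicidal effect scored visually 3 weeks after treatment on a graded scale.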

[5] = system: Avena fatua; assay: Herbicidal effect test by foliage treatment; type: in vivo; conditions: 1.6 g/a; foliage treatment after growth of 14 days; 3 weeks after treatment
Summary of the method: as §2

[6] = system: Amaranthus retroflexus; assay: Herbicidal effect test by foliage treatment; type: in vivo; conditions: 1.6 g/a; foliage treatment after growth of 14 days; 3 weeks after treatment
Summary of the method: as §2

[7] = system: Ambrosia elatior; assay: Herbicidal effect test by foliage treatment; type: in vivo; conditions: 1.6 g/a; foliage treatment after growth of 14 days; 3 weeks after treatment
Summary of the method: as §2

[8] = system: Setaria viridis; assay: Herbicidal effect test by foliage treatment; type: in vivo; conditions: 1.6 g/a; foliage treatment after growth of 14 days; 3 weeks after treatment
Summary of the method: as §2

[9] = system: Triticum aestivum (wheat); assay: Herbicidal effect test by foliage treatment; type: in vivo; conditions: 1.6 g/a; foliage treatment after growth of 14 days; 3 weeks after treatment
Summary of the method: as §2

[10] = system: corn (Zea mays); assay: Herbicidal effect test by foliage treatment; type: in vivo; conditions: 1.6 g/a; foliage treatment after growth of 14 days; 3 weeks after treatment
Summary of the method: as §2

[11] = system: soybean (Glycine max); assay: Herbicidal effect test by foliage treatment; type: in vivo; conditions: 1.6 g/a; foliage treatment after growth of 14 days; 3 weeks after treatment
Summary of the method: as §2

[12] = system: Polygonum blumei; assay: Herbicidal effect test by foliage treatment; type: in vivo; conditions: 1.6 g/a; foliage treatment after growth of 14 days; 3 weeks after treatment
Summary of the method: as §2

[13] = system: Black-grass; assay: Herbicidal effect test by foliage treatment; type: in vivo; conditions: 1.6 g/a; foliage treatment after growth of 14 days; 3 weeks after treatment
Summary of the method: as §2

[14] = system: Chenopodium album; assay: Herbicidal effect test by foliage treatment; type: in vivo; conditions: 1.6 g/a; foliage treatment after growth of 14 days; 3 weeks after treatment
Summary of the method: as §2

[15] = system: Stellaria media; assay: Herbicidal effect test by foliage treatment; type: in vivo; conditions: 1.6 g/a; foliage treatment after growth of 14 days; 3 weeks after treatment
Summary of the method: as §2

[16] = system: Digitaria adscendes; assay: Herbicidal effect test by foliage treatment; type: in vivo; conditions: 1.6 g/a; foliage treatment after growth of 14 days; 3 weeks after treatment
Summary of the method: as §2

[17] = system: Beta vulgaris (beet); assay: Herbicidal effect test by foliage treatment; type: in vivo; conditions: 1.6 g/a; foliage treatment after growth of 14 days; 3 weeks after treatment
Summary of the method: as §2

[18] = system: Echinochloa crus-galli; assay: Herbicidal effect test by foliage treatment; type: in vivo; conditions: 1.6 g/a; foliage treatment after growth of 14 days; 3 weeks after treatment
Summary of the method: as §2

[19] = system: Abutilon avicennae; assay: Herbicidal effect test by foliage treatment; type: in vivo; conditions: 1.6 g/a; foliage treatment after growth of 14 days; 3 weeks after treatment
Summary of the method: as §2

[20] = system: direct sown rice; assay: Herbicidal effect test by soil treatment; type: in vivo, Oryza sativa; conditions: 1.6 g/a, 3 weeks after treatment
Summary of the method: (§3)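 Seeds were sown in sterilized diluvial soil under about 1.5 cm cover, then the soil surface was sprayed uniformly with a water-diluted wettable powder at a predetermined formulation amount. Herbicidal effect was scored per species 3 weeks after treatment.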

[21] = system: Avena fatua; assay: Herbicidal effect test by soil treatment; type: in vivo; conditions: 1.6 g/a, 3 weeks after treatment
Summary of the method: as §3

[22] = system: Amaranthus retroflexus; assay: Herbicidal effect test by soil treatment; type: in vivo; conditions: 1.6 g/a, 3 weeks after treatment
Summary of the method: as §3

[23] = system: Ambrosia elatior; assay: Herbicidal effect test by soil treatment; type: in vivo; conditions: 1.6 g/a, 3 weeks after treatment
Summary of the method: as §3

[24] = system: Setaria viridis; assay: Herbicidal effect test by soil treatment; type: in vivo; conditions: 1.6 g/a, 3 weeks after treatment
Summary of the method: as §3

[25] = system: Triticum aestivum (wheat); assay: Herbicidal effect test by soil treatment; type: in vivo; conditions: 1.6 g/a, 3 weeks after treatment
Summary of the method: as §3

[26] = system: corn (Zea mays); assay: Herbicidal effect test by soil treatment; type: in vivo; conditions: 1.6 g/a, 3 weeks after treatment
Summary of the method: as §3

[27] = system: soybean (Glycine max); assay: Herbicidal effect test by soil treatment; type: in vivo; conditions: 1.6 g/a, 3 weeks after treatment
Summary of the method: as §3

[28] = system: Polygonum blumei; assay: Herbicidal effect test by soil treatment; type: in vivo; conditions: 1.6 g/a, 3 weeks after treatment
Summary of the method: as §3

[29] = system: Black-grass; assay: Herbicidal effect test by soil treatment; type: in vivo; conditions: 1.6 g/a, 3 weeks after treatment
Summary of the method: as §3

[30] = system: Chenopodium album; assay: Herbicidal effect test by soil treatment; type: in vivo; conditions: 1.6 g/a, 3 weeks after treatment
Summary of the method: as §3

[31] = system: Stellaria media; assay: Herbicidal effect test by soil treatment; type: in vivo; conditions: 1.6 g/a, 3 weeks after treatment
Summary of the method: as §3

[32] = system: Digitaria adscendes; assay: Herbicidal effect test by soil treatment; type: in vivo; conditions: 1.6 g/a, 3 weeks after treatment
Summary of the method: as §3

[33] = system: Beta vulgaris (beet); assay: Herbicidal effect test by soil treatment; type: in vivo; conditions: 1.6 g/a, 3 weeks after treatment
Summary of the method: as §3

[34] = system: Echinochloa crus-galli; assay: Herbicidal effect test by soil treatment; type: in vivo; conditions: 1.6 g/a, 3 weeks after treatment
Summary of the method: as §3

[35] = system: Abutilon avicennae; assay: Herbicidal effect test by soil treatment; type: in vivo; conditions: 1.6 g/a, 3 weeks after treatment
Summary of the method: as §3

[36] = system: Scirpus juncoides; assay: Herbicidal effect test in submerged condition by treatment before weed-generation (1); type: in vivo; conditions: 0.64 g/a, water surface treated on day of sowing, 3 weeks after treatment
Summary of the method: (§4)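 Alluvial soil flooded to 4 cm water depth; Echinochloa crus-galli, Scirpus juncoides and Monochoria vaginalis seeds sown, rice transplanted at 2.5-leaf stage. Wettable powder diluted in water applied to water surface on sowing day; greenhouse 25–30° C. Effect scored 0–5 by herbicidal rate after 3 weeks.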

[37] = system: Echinochloa crus-galli; assay: as above; type: in vivo; conditions: 0.64 g/a, water surface treated on day of sowing, 3 weeks after treatment
Summary of the method: as §4

[38] = system: Monochoria vaginalis; assay: as above; type: in vivo; conditions: 0.64 g/a, water surface treated on day of sowing, 3 weeks after treatment
Summary of the method: as §4

Compound | herbicidal effect, B: Scirpus juncoides [1] | herbicidal effect, A: Echinochloa crus-galli [2] | herbicidal effect, C: Monochoria vaginalis [3] | herbicidal effect, d: direct sown rice [4] | herbicidal effect, F: Avena fatua [5] | herbicidal effect, J: Amaranthus retroflexus [6] | herbicidal effect, I: Ambrosia elatior [7] | herbicidal effect, E: Setaria viridis [8] | herbicidal effect, e: Triticum aestivum (wheat) [9] | herbicidal effect, b: corn (Zea mays) [10] | herbicidal effect, c: soybean (Glycine max) [11] | herbicidal effect, L: Polygonum blumei [12] | herbicidal effect, G: Black-grass [13] | herbicidal effect, K: Chenopodium album [14] | herbicidal effect, M: Stellaria media [15] | herbicidal effect, D: Digitaria adscendes [16] | herbicidal effect, f: Beta vulgaris (beet) [17] | herbicidal effect, A: Echinochloa crus-galli [18] | herbicidal effect, H: Abutilon avicennae [19] | herbicidal effect, d: direct sown rice [20] | further results
COc1cc(OC)nc(NC(=O)NS(=O)(=O)c2c(C3=NOCC(C)(CI)O3)c(Cl)nn2C)n1 (stereo not shown) [Compound 4, N-((4,6-dimethoxypyrimidin-2-yl)aminocarbonyl)-3-chloro-4-(5-iodomethyl-5-methyl-5H,6H-1,4,2-dioxadin-3-yl)-1-methylpyrazole-5-sulfonamide] | 3 (Herbicidal rate 40% or more and less than 70%) | 0 (Herbicidal rate 5% or less (little effect)) | 3 (Herbicidal rate 40% or more and less than 70%) | 0 (Herbicidal rate 5% or less (little effect)) | 0 (Herbicidal rate 5% or less (little effect)) | 2 (Herbicidal rate 20% or more and less than 40%) | 3 (Herbicidal rate 40% or more and less than 70%) | 0 (Herbicidal rate 5% or less (little effect)) | 0 (Herbicidal rate 5% or less (little effect)) | 0 (Herbicidal rate 5% or less (little effect)) | 3 (Herbicidal rate 40% or more and less than 70%) | 3 (Herbicidal rate 40% or more and less than 70%) | 0 (Herbicidal rate 5% or less (little effect)) | 4 (Herbicidal rate 70% or more and less than 90%) | 2 (Herbicidal rate 20% or more and less than 40%) | 0 (Herbicidal rate 5% or less (little effect)) | 1 (Herbicidal rate 5% or more and less than 20%) | 0 (Herbicidal rate 5% or less (little effect)) | 4 (Herbicidal rate 70% or more and less than 90%) | 0 (Herbicidal rate 5% or less (little effect)) | herbicidal effect, F: Avena fatua [21]: 0 (Herbicidal rate 5% or less (little effect)); herbicidal effect, J: Amaranthus retroflexus [22]: 0 (Herbicidal rate 5% or less (little effect)); herbicidal effect, I: Ambrosia elatior [23]: 2 (Herbicidal rate 20% or more and less than 40%); herbicidal effect, E: Setaria viridis [24]: 0 (Herbicidal rate 5% or less (little effect)); herbicidal effect, e: Triticum aestivum (wheat) [25]: 0 (Herbicidal rate 5% or less (little effect)); herbicidal effect, b: corn (Zea mays) [26]: 0 (Herbicidal rate 5% or less (little effect)); herbicidal effect, c: soybean (Glycine max) [27]: 0 (Herbicidal rate 5% or less (little effect)); herbicidal effect, L: Polygonum blumei [28]: 0 (Herbicidal rate 5% or less (little effect)); herbicidal effect, G: Black-grass [29]: 0 (Herbicidal rate 5% or less (little effect)); herbicidal effect, K: Chenopodium album [30]: 1 (Herbicidal rate 5% or more and less than 20%); herbicidal effect, M: Stellaria media [31]: 1 (Herbicidal rate 5% or more and less than 20%); herbicidal effect, D: Digitaria adscendes [32]: 0 (Herbicidal rate 5% or less (little effect)); herbicidal effect, f: Beta vulgaris (beet) [33]: 0 (Herbicidal rate 5% or less (little effect)); herbicidal effect, A: Echinochloa crus-galli [34]: 0 (Herbicidal rate 5% or less (little effect)); herbicidal effect, H: Abutilon avicennae [35]: 0 (Herbicidal rate 5% or less (little effect))
COc1cc(OC)nc(NC(=O)NS(=O)(=O)c2c(C3=NOCC(CI)O3)c(C)nn2C)n1 (stereo not shown) [Compound 6] | 5 (Herbicidal rate 90% or more (almost complete death)) | 5 (Herbicidal rate 90% or more (almost complete death)) | 5 (Herbicidal rate 90% or more (almost complete death)) | 4 (Herbicidal rate 70% or more and less than 90%) | 3 (Herbicidal rate 40% or more and less than 70%) | 4 (Herbicidal rate 70% or more and less than 90%) | 5 (Herbicidal rate 90% or more (almost complete death)) | 5 (Herbicidal rate 90% or more (almost complete death)) | 4 (Herbicidal rate 70% or more and less than 90%) | 4 (Herbicidal rate 70% or more and less than 90%) | 4 (Herbicidal rate 70% or more and less than 90%) | 5 (Herbicidal rate 90% or more (almost complete death)) | 5 (Herbicidal rate 90% or more (almost complete death)) | 5 (Herbicidal rate 90% or more (almost complete death)) | 5 (Herbicidal rate 90% or more (almost complete death)) | 5 (Herbicidal rate 90% or more (almost complete death)) | 5 (Herbicidal rate 90% or more (almost complete death)) | 5 (Herbicidal rate 90% or more (almost complete death)) | 5 (Herbicidal rate 90% or more (almost complete death)) | 4 (Herbicidal rate 70% or more and less than 90%) | herbicidal effect, B: Scirpus juncoides [36]: 5 (Herbicidal rate 90% or more (almost complete death)); herbicidal effect, A: Echinochloa crus-galli [37]: 5 (Herbicidal rate 90% or more (almost complete death)); herbicidal effect, C: Monochoria vaginalis [38]: 5 (Herbicidal rate 90% or more (almost complete death)); herbicidal effect, F: Avena fatua [21]: 0 (Herbicidal rate 5% or less (little effect)); herbicidal effect, J: Amaranthus retroflexus [22]: 4 (Herbicidal rate 70% or more and less than 90%); herbicidal effect, I: Ambrosia elatior [23]: 5 (Herbicidal rate 90% or more (almost complete death)); herbicidal effect, E: Setaria viridis [24]: 3 (Herbicidal rate 40% or more and less than 70%); herbicidal effect, e: Triticum aestivum (wheat) [25]: 4 (Herbicidal rate 70% or more and less than 90%); herbicidal effect, b: corn (Zea mays) [26]: 4 (Herbicidal rate 70% or more and less than 90%); herbicidal effect, c: soybean (Glycine max) [27]: 3 (Herbicidal rate 40% or more and less than 70%); herbicidal effect, L: Polygonum blumei [28]: 5 (Herbicidal rate 90% or more (almost complete death)); herbicidal effect, G: Black-grass [29]: 5 (Herbicidal rate 90% or more (almost complete death)); herbicidal effect, K: Chenopodium album [30]: 5 (Herbicidal rate 90% or more (almost complete death)); herbicidal effect, M: Stellaria media [31]: 5 (Herbicidal rate 90% or more (almost complete death)); herbicidal effect, D: Digitaria adscendes [32]: 4 (Herbicidal rate 70% or more and less than 90%); herbicidal effect, f: Beta vulgaris (beet) [33]: 4 (Herbicidal rate 70% or more and less than 90%); herbicidal effect, A: Echinochloa crus-galli [34]: 4 (Herbicidal rate 70% or more and less than 90%); herbicidal effect, H: Abutilon avicennae [35]: 3 (Herbicidal rate 40% or more and less than 70%)

Reference: US7709636B2, “Pyrazole sulfonylurea compound and herbicide” (Nissan Chemical Industries, Ltd., priority 2004, dated 2010)
